According to patent US12410208B2, “(2-acetamidyl)thio-beta-D-galactopyranoside derivatives” (Idorsia Pharmaceuticals Ltd, priority 2020, dated 2025):
Read-outs that look alike come from different tables or passages of the source.

Legend:
[1] = target: biotinylated human Gal-3 (hGal-3) (Homo sapiens, UniProt P17931); assay: Competitive binding assay: biotinylated hGal-3 binding to microplate-adsorbed asialofetuin (ASF), spectrophotometric
Summary of the method: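 Competitive binding of biotinylated hGal-3 to plate-adsorbed asialofetuin was measured with serially diluted compounds over 3 h at 4° C. Bound protein was detected with streptavidin-peroxidase and ABTS substrate by absorbance. IC50 values are means of several measurements.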

[2] = target: human Gal-1 (hGal-1) (Homo sapiens, UniProt P09382); assay: Competitive binding assay: biotinylated hGal-1 binding to microplate-adsorbed asialofetuin (ASF), spectrophotometric; settings: hGal-1 binding to asialofetuin; Table 15; R and S epimers of selected Examples also listed; read-out: IC50 (Galectin-1 inhibition)
Description: Biological Assay Evaluation of Compound Inhibitory Activity (IC50)
The inhibitory activity of compounds is determined in competitive binding assays. This spectrophotometric assay measures the binding of biotinylated human Gal-3 (hGal-3) or human Gal-1 (hGal-1), respectively, to a microplate-adsorbed glycoprotein, asialofetuin (ASF) (Proc Natl Acad Sci USA. 2013 Mar. 26; 110(13):5052-7.).
Briefly, compounds are serially diluted in DMSO (working dilutions). ASF-coated 384well plates are supplemented with 22.8 μL/well of biotinylated hGal-3 or hGal-1 in assay buffer (i.e. 300-1000 ng/mL biotinylated hGal-3 or hGal-1) to which 1.2 μL of compound working dilutions are added and mixed.
Plates are incubated for 3 hours at 4° C., then washed with cold assay buffer (3×50 uL), incubated for 1 hour with 25 μL/well of a streptavidin-peroxidase solution (diluted in assay buffer to 80 ng/mL) at 4° C., followed by further washing steps with assay buffer (3×50 uL). Finally, 25 μL/well of ABTS substrate is added.
The calculated IC50 values may fluctuate depending on the daily assay performance. Fluctuations of this kind are known to those skilled in the art. IC50 values from several measurements are given as mean values.

[3] = Table 12, hGal-3, read-out: IC50 (Gal-3 inhibition)
[4] = Gal-3 inhibition, Table 4, read-out: IC50
[5] = Table 6, hGal-3, read-out: IC50 (Gal-3 inhibition)
[6] = Gal-3 inhibition, Table 5, read-out: IC50
[7] = Table 9, hGal-3, read-out: IC50 (Gal-3 inhibition)

biotinylated human Gal-3 (hGal-3), sequence (P17931 whole entry): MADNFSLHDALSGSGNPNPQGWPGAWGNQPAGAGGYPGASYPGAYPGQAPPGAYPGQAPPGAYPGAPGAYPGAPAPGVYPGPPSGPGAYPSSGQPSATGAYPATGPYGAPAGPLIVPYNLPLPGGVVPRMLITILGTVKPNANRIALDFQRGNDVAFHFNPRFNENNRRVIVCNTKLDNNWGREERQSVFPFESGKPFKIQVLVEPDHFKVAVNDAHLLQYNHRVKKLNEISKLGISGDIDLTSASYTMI
human Gal-1 (hGal-1), sequence (P09382 whole entry): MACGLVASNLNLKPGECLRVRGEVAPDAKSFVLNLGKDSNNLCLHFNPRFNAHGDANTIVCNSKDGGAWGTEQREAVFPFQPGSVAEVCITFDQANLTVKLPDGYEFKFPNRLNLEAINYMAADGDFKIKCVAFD

With `CO[C@@H]1[C@@H](n2cc(-c3cc(F)c(F)c(F)c3)nn2)[C@@H](O)[C@@H](CO)O[C@H]1SC(C(=O)N(C)C12CC(C1)C2)C1(O)CCC(F)(F)CC1` (stereo partly drawn) [Example 2.44.247.I., N-(Bicyclo[1.1.1]pentan-1-yl)-2-(4,4-difluoro-1-hydroxycyclohexyl)-2-(((2S,3R,4S,5R,6R)-5-hydroxy-6-(hydroxymethyl)-3-methoxy-4-(4-(3,4,5-trifluorophenyl)-1H-1,2,3-triazol-1-yl)tetrahydro-2H-pyran-2-yl)thio)-N-methylacetamide] the IC50 [1, 3] was 50 nM and the IC50 [2] was 30 nM.

`CN(CC1CC1)C(=O)[C@H](S[C@@H]1O[C@H](CO)[C@H](O)[C@H](n2cc(-c3cc(F)c(F)c(F)c3)nn2)[C@H]1O)C1(O)CCOCC1` [Example 2.41.218R., (R)-N-(Cyclopropylmethyl)-2-(((2S,3R,4S,5R,6R)-3,5-dihydroxy-6-(hydroxymethyl)-4-(4-(3,4,5-trifluorophenyl)-1H-1,2,3-triazol-1-yl)tetrahydro-2H-pyran-2-yl)thio)-2-(4-hydroxytetrahydro-2H-pyran-4-yl)-N-methylacetamide] gave an IC50 [1, 4] of 2250 nM and an IC50 [2] of 19000 nM.

`CCN(C)C(=O)C(S[C@@H]1O[C@H](CO)[C@H](O)[C@H](n2cc(-c3cc(F)cc(F)c3)nn2)[C@H]1O)C1(O)CCOCC1` (stereo partly drawn) [Example 10.41.203., 2-(((2S,3R,4S,5R,6R)-4-(4-(3,5-Difluorophenyl)-1H-1,2,3-triazol-1-yl)-3,5-dihydroxy-6-(hydroxymethyl)tetrahydro-2H-pyran-2-yl)thio)-N-ethyl-2-(4-hydroxytetrahydro-2H-pyran-4-yl)-N-methylacetamide] gave an IC50 ([1]; Table 11, hGal-3, read-out: IC50 (Gal-3 inhibition)) of 100 nM and an IC50 [2] of 270 nM.

In the case of `CCC(O)(CC)C(S[C@@H]1O[C@H](CO)[C@H](O)[C@H](n2cc(-c3cc(F)c(F)c(F)c3)nn2)[C@H]1O)C(=O)N(C)CC(C)(C)F` (stereo partly drawn) [Example 2.32.222., 2-(((2S,3R,4S,5R,6R)-3,5-Dihydroxy-6-(hydroxymethyl)-4-(4-(3,4,5-trifluorophenyl)-1H-1,2,3-triazol-1-yl)tetrahydro-2H-pyran-2-yl)thio)-3-ethyl-N-(2-fluoro-2-methylpropyl)-3-hydroxy-N-methylpentanamide], the IC50 [1, 5] is reported as 360 nM and the IC50 [2] is reported as 2060 nM.

In the case of `CO[C@@H]1[C@@H](n2cc(-c3cc(F)c(F)c(F)c3)nn2)[C@@H](O)[C@@H](CO)O[C@H]1SC(C(=O)N(C)C1CCC(C)(C)CC1)C1(O)CCC(F)(F)CC1` (stereo partly drawn) [Example 2.44.246.I., 2-(4,4-Difluoro-1-hydroxycyclohexyl)-N-(4,4-dimethylcyclohexyl)-2-(((2S,3R,4S,5R,6R)-5-hydroxy-6-(hydroxymethyl)-3-methoxy-4-(4-(3,4,5-trifluorophenyl)-1H-1,2,3-triazol-1-yl)tetrahydro-2H-pyran-2-yl)thio)-N-methylacetamide], the IC50 [1, 3] is reported as 320 nM and the IC50 [2] is reported as 1200 nM.

Molecule `CCN(C)C(=O)[C@@H](S[C@@H]1O[C@H](CO)[C@H](O)[C@H](n2cc(-c3cc(F)c(F)c(F)c3)nn2)[C@H]1OC)C1(O)CCN(C(=O)NC2CC2)CC1` [Example 2.49.226S.I., N-Cyclopropyl-4-((S)-2-(ethyl(methyl)amino)-1-(((2S,3R,4S,5R,6R)-5-hydroxy-6-(hydroxymethyl)-3-methoxy-4-(4-(3,4,5-trifluorophenyl)-1H-1,2,3-triazol-1-yl)tetrahydro-2H-pyran-2-yl)thio)-2-oxoethyl)-4-hydroxypiperidine-1-carboxamide] has an IC50 ([1]; Table 8, hGal-3, read-out: IC50 (Gal-3 inhibition)) of 60 nM and an IC50 [2] of 1700 nM.

Work on `CO[C@@H]1[C@@H](n2cc(-c3cc(F)c(F)c(F)c3)nn2)[C@@H](O)[C@@H](CO)O[C@H]1S[C@@H](C(=O)N(C)CC(C)(C)F)C1(O)CCC(F)(F)CC1` [Example 2.44.222R.I., (R)-2-(4,4-Difluoro-1-hydroxycyclohexyl)-N-(2-fluoro-2-methylpropyl)-2-(((2S,3R,4S,5R,6R)-5-hydroxy-6-(hydroxymethyl)-3-methoxy-4-(4-(3,4,5-trifluorophenyl)-1H-1,2,3-triazol-1-yl)tetrahydro-2H-pyran-2-yl)thio)-N-methylacetamide] yielded an IC50 [1, 3] of 7900 nM and an IC50 [2] of 8780 nM.

Work on `CN(C)C(=O)C(S[C@@H]1O[C@H](CO)[C@H](O)[C@H](n2cc(-c3cc(F)c(F)c(F)c3)nn2)[C@H]1O)C(C)(C)O` (stereo partly drawn) [Example 2.31.201., 2-(((2S,3R,4S,5R,6R)-3,5-Dihydroxy-6-(hydroxymethyl)-4-(4-(3,4,5-trifluorophenyl)-1H-1,2,3-triazol-1-yl)tetrahydro-2H-pyran-2-yl)thio)-3-hydroxy-N,N,3-trimethylbutanamide] yielded an IC50 ([1]; Gal-3 inhibition, Table 3, read-out: IC50) of 270 nM and an IC50 [2] of 1920 nM.

Work on “1-(4,4-Difluoropiperidin-1-yl)-2-(4-hydroxy-2,2-dimethyltetrahydro-2H-pyran-4-yl)-2-(((2S,3R,4S,5R,6R)-5-hydroxy-6-(hydroxymethyl)-3-methoxy-4-(4-(3,4,5-trifluorophenyl)-1H-1,2,3-triazol-1-yl)tetrahydro-2H-pyran-2-yl)thio)ethan-1-one [Example 2.43.226.I.]” yielded an IC50 ([1]; Table 13, hGal-3, read-out: IC50 (Gal-3 inhibition)) of 250 nM and an IC50 [2] of 460 nM.

For `CN(C)C(=O)[C@H](S[C@@H]1O[C@H](CO)[C@H](O)[C@H](n2cc(-c3cc(F)c(F)c(F)c3)nn2)[C@H]1O)C1(O)CCOCC1` [Example 2.41.201R., (R)-2-(((2S,3R,4S,5R,6R)-3,5-Dihydroxy-6-(hydroxymethyl)-4-(4-(3,4,5-trifluorophenyl)-1H-1,2,3-triazol-1-yl)tetrahydro-2H-pyran-2-yl)thio)-2-(4-hydroxytetrahydro-2H-pyran-4-yl)-N,N-dimethylacetamide], the IC50 [1, 4] was 4100 nM and the IC50 [2] was over 100000 nM.

`CCN(C(=O)C(S[C@@H]1O[C@H](CO)[C@H](O)[C@H](n2cc(-c3cc(F)c(F)c(F)c3)nn2)[C@H]1O)C1(O)CCOCC1)C1CCC1` (stereo partly drawn) [Example 2.41.237.] gave an IC50 ([1]; Table 10, hGal-3, read-out: IC50 (Gal-3 inhibition)) of 30 nM and an IC50 [2] of 20 nM.

“(S)-2-(((2S,3R,4S,5R,6R)-3,5-Dihydroxy-6-(hydroxymethyl)-4-(4-(3,4,5-trifluorophenyl)-1H-1,2,3-triazol-1-yl)tetrahydro-2H-pyran-2-yl)thio)-2-(1-hydroxycyclohexyl)-N-methyl-N-(pyridin-2-ylmethyl)acetamide [Example 2.39.224S.]” showed an IC50 [1, 6] of 60 nM and an IC50 [2] of 70 nM.

For `O=C(C(S[C@@H]1O[C@H](CO)[C@H](O)[C@H](n2cc(-c3cc(F)c(F)c(F)c3)nn2)[C@H]1O)C1(O)CCCC1)N1CCC1` (stereo partly drawn) [Example 2.38.206., 1-(Azetidin-1-yl)-2-(((2S,3R,4S,5R,6R)-3,5-dihydroxy-6-(hydroxymethyl)-4-(4-(3,4,5-trifluorophenyl)-1H-1,2,3-triazol-1-yl)tetrahydro-2H-pyran-2-yl)thio)-2-(1-hydroxycyclopentyl)ethan-1-one], the IC50 [1, 6] was 230 nM and the IC50 [2] was 770 nM.

`CO[C@@H]1[C@@H](n2cc(-c3cc(F)c(F)c(F)c3)nn2)[C@@H](O)[C@@H](CO)O[C@H]1S[C@@H](C(=O)N(C)c1ccccn1)C1(O)CCC(F)(F)CC1` [Example 2.41.233R.I.] was tested, and the IC50 [1, 7] was 7240 nM and the IC50 [2] was 7100 nM.

`CCN(C)C(=O)C(S[C@@H]1O[C@H](CO)[C@H](O)[C@H](n2cc(-c3cc(F)c(F)c(F)c3)nn2)[C@H]1O)C1(O)CCCC1` (stereo partly drawn) [Example 2.38.203., 2-(((2S,3R,4S,5R,6R)-3,5-Dihydroxy-6-(hydroxymethyl)-4-(4-(3,4,5-trifluorophenyl)-1H-1,2,3-triazol-1-yl)tetrahydro-2H-pyran-2-yl)thio)-N-ethyl-2-(1-hydroxycyclopentyl)-N-methylacetamide] showed an IC50 [1, 6] of 430 nM and an IC50 [2] of 1130 nM.

`CCN(C)C(=O)[C@H](S[C@@H]1O[C@H](CO)[C@H](O)[C@H](n2cc(-c3cc(F)c(F)c(F)c3)nn2)[C@H]1O)C(O)(CC)CC` [Example 2.32.203R., (R)-2-(((2S,3R,4S,5R,6R)-3,5-Dihydroxy-6-(hydroxymethyl)-4-(4-(3,4,5-trifluorophenyl)-1H-1,2,3-triazol-1-yl)tetrahydro-2H-pyran-2-yl)thio)-N,3-diethyl-3-hydroxy-N-methylpentanamide] showed an IC50 [1, 5] of 4550 nM and an IC50 [2] of 30800 nM.

Work on `CN(CC(C)(C)C)C(=O)[C@H](S[C@@H]1O[C@H](CO)[C@H](O)[C@H](n2cc(-c3cc(F)c(F)c(F)c3)nn2)[C@H]1O)C1(O)CCC1` [Example 2.34.228R., (R)-2-(((2S,3R,4S,5R,6R)-3,5-Dihydroxy-6-(hydroxymethyl)-4-(4-(3,4,5-trifluorophenyl)-1H-1,2,3-triazol-1-yl)tetrahydro-2H-pyran-2-yl)thio)-2-(1-hydroxycyclobutyl)-N-methyl-N-neopentylacetamide] yielded an IC50 [1, 6] of 5900 nM and an IC50 [2] of 22600 nM.

For `CN(C(=O)C(S[C@@H]1O[C@H](CO)[C@H](O)[C@H](n2cc(-c3cc(F)c(F)c(F)c3)nn2)[C@H]1O)C1(O)CCOCC1)c1ccccc1` (stereo partly drawn) [Example 2.41.231.], the IC50 [1, 7] was 110 nM and the IC50 [2] was 80 nM.
